Laboratory results: US20130131321A1, “LIGANDS FOR ANTIBODY AND Fc-FUSION PROTEIN PURIFICATION BY AFFINITY CHROMATOGRAPHY” (GRAFFINITY PHARMACEUTICALS GMBH, priority 2010, published 2013)

Key:
Anti RhD IgG = test: SPR screening of chemical microarrays, Anti RhD IgG; format: binding; conditions: chemical microarray, immobilized ligand
Text: (§1) Graffinity has developed high density chemical microarrays comprising thousands of small molecules immobilized onto gold chips. The arrays are constructed using maleimide-thiol coupling chemistry in combination with high density pintool spotting. For the construction, glass plates are microstructured by photolithographical methods in order to define up to 9,216 sensor fields per array. A subsequently applied gold coating provides the basis for the SPR effect and enables the formation of a binary, mixed self assembled monolayer (SAM) of two different thiols. […]
(§2) Surface plasmons are collective oscillations of electrons at a metal surface which can be resonantly excited by polarized light of appropriate wavelength and incidence angle. […] Processes which alter the local refractive index in close proximity to the metal surface (such as antibody binding to the immobilized ligands) can therefore be monitored sensitively. […] While scanning over a range of wavelengths covering the SPR resonance conditions, reflection images are recorded stepwise. […]
(§3) The experimental results of the microarray screening campaigns were analyzed by manual hit selection using in-house developed software routines as well as by an in-depth data analysis by commercially available data mining tools. […]

Palivizumab = test: SPR screening of chemical microarrays, Palivizumab; format: binding, humanized; conditions: chemical microarray, immobilized ligand
Text: as §1, §2, §3

rabbit poly-IgGs = test: Microtiter plate chromatography of resins, rabbit poly-IgG; format: binding
Procedure: (§4) Resins were assessed in packed mode by microtiter plate chromatography. For each column, approximately 30 μl of resin were transferred to a 384-well filter plate and sealed with appropriate top frits.
(§5) Columns were equilibrated with 6.7 column volumes (cv) of phosphate buffered saline (0.15 M NaCl, 20 mM sodium phosphate, pH 7.3; PBS) prior to injection. Either 3.3 cv of whole IgGs dissolved at 0.75 mg ml^−1, Fab or Fc fragments dissolved at 0.25 mg ml^−1 (all three in PBS) or host cell proteins (HCP) were injected onto columns. Antibody fragments of Bevacizumab (Fab and Fc) were prepared by cleavage of whole IgG with papain protease (3) according to the protocol of the manufacturer. […] Volumes transferred were spun through columns at 50 g for 1-2 min. During injection of samples, acceleration was reduced to 10 g and centrifugation time increased to 5-10 min. Effluent fractions were collected in 384-well plates and concentrations of protein analyzed by Bradford assay. Protein masses mi, mft and me (see below) were calculated as the product of fraction volume and measured protein concentration.
(§6) The fraction of ‘bound’ protein was calculated as the difference between the total mass of protein injected mi and the mass of protein detected in the flowthrough mft, divided by the total mass of protein injected.
The ‘yield’ of protein was calculated as the mass of protein eluted me, divided by the mass of protein injected mi.
(§7) the fraction of ‘bound’ protein and the ‘yield’ of protein were calculated for each resin based on data for whole IgG-antibodies. In the case of Bevacizumab fragments and host cell proteins, only the fraction of ‘bound’ protein is given. Selectivity of resins was calculated from data for Bevacizumab Whole IgG and host cell proteins. Due to limited experimental precision, selectivity was truncated beyond values of 10.

host cell proteins (HCP) = test: Microtiter plate chromatography of resins, host cell proteins (bound); format: binding, CHO; conditions: host cell proteins
Tocilizumab = test: Microtiter plate chromatography of resins, Tocilizumab (bound, yield); format: binding, humanized
[1] = test system: human poly-IgG (h-poly-IgG); test: Microtiter plate chromatography of resins, human poly-IgG (bound, yield); format: binding
Bevacizumab Fab fragment = test: Microtiter plate chromatography of resins, Bevacizumab Fab fragment (bound); format: binding, humanized
Procedure: as §4, §5, §6, §7

COc1ccc(NC(=O)c2cc(-c3ccco3)n(C)n2)cc1C(=O)NCCCN [Ligand L1, 5-[5-(2-Furyl)-1-methylpyrazol-3-yl]carboxamido-2-methoxybenzoic acid N-(3-aminopropyl)amide]
SPR binding to full length Anti RhD IgG (Anti RhD IgG): clearly bound
SPR binding to full length Palivizumab (Palivizumab): clearly bound
r-poly-IgG Bound (%) (rabbit poly-IgGs): 100%
r-poly-IgG Yield (%) (rabbit poly-IgGs): 100%
binding of rabbit poly-IgGs (rabbit poly-IgGs; microtiter plate chromatography, PBS): efficient binding
HCP Bound (%) (host cell proteins (HCP)): 30%
Tocilizumab Bound (%) (Tocilizumab): 100%
Tocilizumab Yield (%) (Tocilizumab): 97%
h-poly-IgG Bound (%) [1]: 100%
h-poly-IgG Yield (%) [1]: 90%
Bevacizumab Fab Bound (%) (Bevacizumab Fab fragment; Bevacizumab Fab fragment): 18%
binding of Bevacizumab Fab-fragment (Bevacizumab Fab fragment; Fab 0.25 mg ml^-1 in PBS): not the Fab-fragment
